Measurements reported in ChEMBL document CHEMBL3046685, “Otebo bean (Phaseolus vulgaris) sensitivity to pre-emergence herbicides” (Crop Prot, 2006).

How the values were obtained:
Phaseolus vulgaris [1] = assay: Phytotoxicity in Phaseolus vulgaris (otebo bean) assessed as plant height at 75 g ai/ha applied as spray during pre-emergence treatment for 1 to 2 days measured 28 days post emergence (reference value: 29 cm); assay type: organism-based; details: in vivo, other
Phaseolus vulgaris [2] = assay: Phytotoxicity in Phaseolus vulgaris (black bean) assessed as visual injury treated through soil application relative to control; assay type: organism-based; details: in vivo, other
Phaseolus vulgaris [3] = assay: Phytotoxicity in Phaseolus vulgaris (cranberry bean) assessed as visual injury at 0.075 to 0.15 kg/ha applied during pre-emergence relative to control; assay type: organism-based; details: in vivo, other
Phaseolus vulgaris [4] = assay: Increase in Phaseolus vulgaris (otebo bean) yield at 150 g ai/ha applied as spray during pre-emergence treatment for 1 to 2 days (reference value: 3.8 t/ha); assay type: functional
Phaseolus vulgaris [5] = assay: Increase in Phaseolus vulgaris (otebo bean) yield at 75 g ai/ha applied as spray during pre-emergence treatment for 1 to 2 days (reference value: 3.8 t/ha); assay type: functional
Phaseolus vulgaris [6] = assay: Phytotoxicity in Phaseolus vulgaris (black bean) assessed as reduction in crop yield treated through soil application relative to control; assay type: organism-based; details: in vivo, other
Phaseolus vulgaris [7] = assay: Phytotoxicity in Phaseolus vulgaris (cranberry bean) assessed as visual injury at 0.075 to 0.15 kg/ha applied prior to planting relative to control; assay type: organism-based; details: in vivo, other
Phaseolus vulgaris [8] = assay: Phytotoxicity in Phaseolus vulgaris (dry bean) assessed as visual injury relative to control; assay type: organism-based; details: in vivo
Phaseolus vulgaris [9] = assay: Phytotoxicity in Phaseolus vulgaris (pinto bean) assessed as visual injury at 75 g ai/ha applied prior to planting relative to control; assay type: organism-based; details: in vivo, other
Phaseolus vulgaris [10] = assay: Phytotoxicity in Phaseolus vulgaris (otebo bean) assessed as change in moisture content at 75 to 150 g ai/ha applied as spray during preemergence treatment for 1 to 2 days; assay type: organism-based; details: in vivo, other
Phaseolus vulgaris [11] = assay: Phytotoxicity in Phaseolus vulgaris (otebo bean) assessed as shoot dry weight at 150 g ai/ha applied as spray during pre-emergence treatment for 1 to 2 days measured 42 days post emergence (reference value: 164 g); assay type: organism-based; details: in vivo, other
Phaseolus vulgaris [12] = assay: Phytotoxicity in Phaseolus vulgaris (otebo bean) assessed as shoot dry weight at 75 g ai/ha applied as spray during pre-emergence treatment for 1 to 2 days measured 42 days post emergence (reference value: 164 g); assay type: organism-based; details: in vivo, other
Phaseolus vulgaris [13] = assay: Phytotoxicity in Phaseolus vulgaris (otebo bean) assessed as plant height at 150 g ai/ha applied as spray during pre-emergence treatment for 1 to 2 days measured 28 days post emergence (reference value: 29 cm); assay type: organism-based; details: in vivo, other
Phaseolus vulgaris [14] = assay: Phytotoxicity in Phaseolus vulgaris (otebo bean) assessed as visual injury at 150 g ai/ha applied as spray during pre-emergence treatment for 1 to 2 days measured 28 days post emergence relative to untreated control; assay type: organism-based; details: in vivo, other
Phaseolus vulgaris [15] = assay: Phytotoxicity in Phaseolus vulgaris (otebo bean) assessed as visual injury at 75 g ai/ha applied as spray during pre-emergence treatment for 1 to 2 days measured 28 days post emergence relative to untreated control; assay type: organism-based; details: in vivo, other
Phaseolus vulgaris [16] = assay: Phytotoxicity in Phaseolus vulgaris (otebo bean) assessed as visual injury at 150 g ai/ha applied as spray during pre-emergence treatment for 1 to 2 days measured 14 days post emergence relative to untreated control; assay type: organism-based; details: in vivo, other
Phaseolus vulgaris [17] = assay: Phytotoxicity in Phaseolus vulgaris (otebo bean) assessed as visual injury at 75 g ai/ha applied as spray during pre-emergence treatment for 1 to 2 days measured 14 days post emergence relative to untreated control; assay type: organism-based; details: in vivo, other
Phaseolus vulgaris [18] = assay: Phytotoxicity in Phaseolus vulgaris (otebo bean) assessed as visual injury at 150 g ai/ha applied as spray during pre-emergence treatment for 1 to 2 days measured 7 days post emergence relative to untreated control; assay type: organism-based; details: in vivo, other
Phaseolus vulgaris [19] = assay: Phytotoxicity in Phaseolus vulgaris (otebo bean) assessed as visual injury at 75 g ai/ha applied as spray during pre-emergence treatment for 1 to 2 days measured 7 days post emergence relative to untreated control; assay type: organism-based; details: in vivo, other
Phaseolus vulgaris [20] = assay: Phytotoxicity in Phaseolus vulgaris (otebo bean) assessed as plant height at 2000 g ai/ha applied as spray during pre-emergence treatment for 1 to 2 days measured 28 days post emergence (reference value: 29 cm); assay type: organism-based; details: in vivo, other
Phaseolus vulgaris [21] = assay: Phytotoxicity in Phaseolus vulgaris (otebo bean) assessed as plant height at 1000 g ai/ha applied as spray during pre-emergence treatment for 1 to 2 days measured 28 days post emergence (reference value: 29 cm); assay type: organism-based; details: in vivo, other
Phaseolus vulgaris [22] = assay: Phytotoxicity in Phaseolus vulgaris (otebo bean) assessed as shoot dry weight at 1000 g ai/ha applied as spray during pre-emergence treatment for 1 to 2 days measured 42 days post emergence (reference value: 164 g); assay type: organism-based; details: in vivo, other
Phaseolus vulgaris [23] = assay: Increase in Phaseolus vulgaris (otebo bean) yield at 2000 g ai/ha applied as spray during pre-emergence treatment for 1 to 2 days (reference value: 3.8 t/ha); assay type: functional
Phaseolus vulgaris [24] = assay: Increase in Phaseolus vulgaris (otebo bean) yield at 1000 g ai/ha applied as spray during pre-emergence treatment for 1 to 2 days (reference value: 3.8 t/ha); assay type: functional
Phaseolus vulgaris [25] = assay: Phytotoxicity in Phaseolus vulgaris (otebo bean) assessed as visual injury at 2000 g ai/ha applied as spray during pre-emergence treatment for 1 to 2 days measured 7 days post emergence relative to untreated control; assay type: organism-based; details: in vivo, other
Phaseolus vulgaris [26] = assay: Phytotoxicity in Phaseolus vulgaris (otebo bean) assessed as change in moisture content at 1000 to 2000 g ai/ha applied as spray during preemergence treatment for 1 to 2 days; assay type: organism-based; details: in vivo, other
Phaseolus vulgaris [27] = assay: Phytotoxicity in Phaseolus vulgaris (otebo bean) assessed as shoot dry weight at 2000 g ai/ha applied as spray during pre-emergence treatment for 1 to 2 days measured 42 days post emergence (reference value: 164 g); assay type: organism-based; details: in vivo, other
Phaseolus vulgaris [28] = assay: Phytotoxicity in Phaseolus vulgaris (otebo bean) assessed as visual injury at 2000 g ai/ha applied as spray during pre-emergence treatment for 1 to 2 days measured 28 days post emergence relative to untreated control; assay type: organism-based; details: in vivo, other
Phaseolus vulgaris [29] = assay: Phytotoxicity in Phaseolus vulgaris (otebo bean) assessed as visual injury at 1000 g ai/ha applied as spray during pre-emergence treatment for 1 to 2 days measured 28 days post emergence relative to untreated control; assay type: organism-based; details: in vivo, other
Phaseolus vulgaris [30] = assay: Phytotoxicity in Phaseolus vulgaris (otebo bean) assessed as visual injury at 2000 g ai/ha applied as spray during pre-emergence treatment for 1 to 2 days measured 14 days post emergence relative to untreated control; assay type: organism-based; details: in vivo, other
Phaseolus vulgaris [31] = assay: Phytotoxicity in Phaseolus vulgaris (otebo bean) assessed as visual injury at 1000 g ai/ha applied as spray during pre-emergence treatment for 1 to 2 days measured 14 days post emergence relative to untreated control; assay type: organism-based; details: in vivo, other
Phaseolus vulgaris [32] = assay: Phytotoxicity in Phaseolus vulgaris (otebo bean) assessed as visual injury at 1000 g ai/ha applied as spray during pre-emergence treatment for 1 to 2 days measured 7 days post emergence relative to untreated control; assay type: organism-based; details: in vivo, other

CCc1cnc(C2=NC(C)(C(C)C)C(=O)N2)c(C(=O)O)c1 (configuration not stated) [IMAZETHAPYR]
Activity (Phaseolus vulgaris [1]): 26 cm
Activity (Phaseolus vulgaris [2]): <= 6%
Activity (Phaseolus vulgaris [3]): < 5%
Crop_yield (Phaseolus vulgaris [4]): 2.9 tons/ha
Crop_yield (Phaseolus vulgaris [5]): 3.2 tons/ha
Crop_yield (Phaseolus vulgaris [6]): 49%
Activity (Phaseolus vulgaris [7]): < 5%
Activity (Phaseolus vulgaris [8]): <= 20%
Activity (Phaseolus vulgaris [9]): < 6%
Activity (Phaseolus vulgaris [10]): Non-toxic
Activity (Phaseolus vulgaris [11]): 95 g
Activity (Phaseolus vulgaris [12]): 118 g
Activity (Phaseolus vulgaris [13]): 22 cm
Activity (Phaseolus vulgaris [14]): 16%
Activity (Phaseolus vulgaris [15]): 6%
Activity (Phaseolus vulgaris [16]): 1%
Activity (Phaseolus vulgaris [17]): 0%
Activity (Phaseolus vulgaris [18]): 0%
Activity (Phaseolus vulgaris [19]): 0%

CC1(C)CON(Cc2ccccc2Cl)C1=O [CLOMAZONE]
Activity (Phaseolus vulgaris [20]): 26 cm
Activity (Phaseolus vulgaris [21]): 28 cm
Activity (Phaseolus vulgaris [22]): 143 g
Crop_yield (Phaseolus vulgaris [23]): 4.1 tons/ha
Crop_yield (Phaseolus vulgaris [24]): 4.5 tons/ha
Activity (Phaseolus vulgaris [25]): 13%
Activity (Phaseolus vulgaris [26]): Non-toxic
Activity (Phaseolus vulgaris [27]): 123 g
Activity (Phaseolus vulgaris [28]): 9%
Activity (Phaseolus vulgaris [29]): 2%
Activity (Phaseolus vulgaris [30]): 12%
Activity (Phaseolus vulgaris [31]): 5%
Activity (Phaseolus vulgaris [32]): 5%
